Patent US20070128217A1 (priority 2003, published 2007)

Assays:
[1] = tested on: rabbit serum obtained by immunizing a rabbit with the SARS-CoV strain Frankfurt 1; assay type: binding; design: Binding of a rabbit serum to linear peptides / Binding of a rabbit serum to looped peptides / Rabbit serum linear peptides / Rabbit serum looped peptides / Binding of a rabbit serum to linear peptides of protein N of SARS-CoV Urbani (Rabbit serum linear peptides) / Binding of a rabbit serum to looped/cyclic peptides of protein N of SARS-CoV Urbani (Rabbit serum looped peptides): unit not given here
[2] = tested on: control sera (pooled serum of ten healthy LUMC hospital workers; commercial negative donor pooled serum from the Dutch bloodbank); assay type: binding, human; design: Binding of Control serum LUMC to linear peptides / Binding of Control serum Blood-bank to linear peptides / Binding of Control serum LUMC to looped peptides / Binding of Control Serum Blood-Bank to Looped peptides / Binding of Control serum LUMC to linear peptides of the protein M of SARS-CoV Urbani / Binding of Control serum Blood-bank to linear peptides of the protein M of SARS-CoV Urbani / Binding of Control serum LUMC to looped peptides of the protein M of SARS-CoV Urbani / Binding of Control Serum Blood-Bank to Looped peptides of the protein M of SARS-CoV Urbani: unit not given here
[3] = tested on: antibodies in sera from SARS patients (sera 1a, 1b, 2, 6, 37, 62, London, SARS-yellow, SARS-green); assay type: binding, human; design: Binding of serum 6 to linear peptides of protein X1 of SARS-CoV Urbani / Binding of serum 37 to linear peptides of protein X1 of SARS-CoV Urbani / Binding of serum 6 to looped/cyclic peptide (PEPSCAN-ELISA) / Binding of serum 37 to looped/cyclic peptide (PEPSCAN-ELISA) / Binding of serum 37 to looped/cyclic peptides of protein X1 of SARS-CoV Urbani / Binding of serum 6 to linear peptides of protein X2 / Binding of serum 37 to linear peptides of protein X2 / Binding of serum 37 to looped/cyclic peptides of protein X2 of SARS-CoV Urbani / Binding of serum 6 to linear peptides of protein M of SARS-CoV Urbani / Binding of serum 37 to linear peptides of protein M of SARS-CoV Urbani / Binding of serum 6 to looped/cyclic peptides of protein M of SARS-CoV Urbani / Binding of serum 37 to looped/cyclic peptides of protein M of SARS-CoV Urbani / Binding of serum 6 to linear peptides of protein X3 of SARS-CoV Urbani / Binding of serum 37 to linear peptides of protein X3 of SARS-CoV Urbani / Binding of serum 37 to looped/cyclic peptides of protein X3 of SARS-CoV Urbani / Binding of serum 6 to linear peptides of protein X4 of SARS-CoV Urbani / Binding of serum 37 to linear peptides of protein X4 of SARS-CoV Urbani / Binding of serum 37 to looped/cyclic peptides of protein X4 of SARS-CoV Urbani / Binding of serum 6 to linear peptides of protein X5 of SARS-CoV Urbani / Binding of serum 37 to linear peptides of protein X5 of SARS-CoV Urbani / Binding of serum 37 to looped/cyclic peptides of protein X5 of SARS-CoV Urbani / Binding of serum 6 to linear peptides of protein N of SARS-CoV Urbani / Binding of serum 37 to linear peptides of protein N of SARS-CoV Urbani / Binding of serum 6 to linear peptide (PEPSCAN-ELISA) / Binding of serum 1a to looped/cyclic peptides of protein N of SARS-CoV Urbani / Binding of serum 1b to looped/cyclic peptides of protein N of SARS-CoV Urbani / Binding of serum 2 to looped/cyclic peptides of protein N of SARS-CoV Urbani / Binding of serum 6 to looped/cyclic peptides of protein N of SARS-CoV Urbani / Binding of serum 37 to looped/cyclic peptides of protein N of SARS-CoV Urbani / Binding of serum 62 to looped/cyclic peptides of protein N of SARS-CoV Urbani / Binding of serum London to looped/cyclic peptides of protein N of SARS-CoV Urbani / Binding of serum SARS-green to looped/cyclic peptides of protein N of SARS-CoV Urbani: unit not given here

FGWLVIGVAFLAVFQ
Binding of a rabbit serum to linear peptides [1]: 1.2
Binding of a rabbit serum to looped peptides [1]: 0.5
Binding of Control Serum Blood-Bank to Looped peptides [2]: 0.6
Binding of Control serum Blood-bank to linear peptides [2]: 0.5
Binding of Control serum LUMC to linear peptides [2]: 0.5
Binding of Control serum LUMC to looped peptides [2]: 0.7
Binding of serum 1a to linear peptides of protein X1 of SARS-CoV Urbani [3]: 0.7
Binding of serum 1a to looped/cyclic peptide (PEPSCAN-ELISA) [3]: 0.7
Binding of serum 1b to linear peptides of protein X1 of SARS-CoV Urbani [3]: 0.5
Binding of serum 1b to looped/cyclic peptide (PEPSCAN-ELISA) [3]: 0.8
Binding of serum 2 to linear peptides of protein X1 of SARS-CoV Urbani [3]: 0.5
Binding of serum 2 to looped/cyclic peptide (PEPSCAN-ELISA) [3]: 0.7
Binding of serum 6 to linear peptides of protein X1 of SARS-CoV Urbani [3]: 0.4
Binding of serum 6 to looped/cyclic peptide (PEPSCAN-ELISA) [3]: 0.5
Binding of serum 37 to linear peptides of protein X1 of SARS-CoV Urbani [3]: 0.6
Binding of serum 37 to looped/cyclic peptide (PEPSCAN-ELISA) [3]: 0.6
Binding of serum 62 to linear peptides of protein X1 of SARS-CoV Urbani [3]: 0.6
Binding of serum 62 to looped/cyclic peptide (PEPSCAN-ELISA) [3]: 0.7
Binding of serum London to linear peptides of protein X1 of SARS-CoV Urbani [3]: 0.3
Binding of serum London to looped/cyclic peptide (PEPSCAN-ELISA) [3]: 0.3
Binding of serum SARS-green to linear peptides of protein X1 of SARS-CoV Urbani [3]: 0.1
Binding of serum SARS-green to looped/cyclic peptide (PEPSCAN-ELISA) [3]: 0.4
Binding of serum SARS-yellow to linear peptides of protein X1 of SARS-CoV Urbani [3]: 0.5
Binding of serum SARS-yellow to looped/cyclic peptide (PEPSCAN-ELISA) [3]: 0.6

VFTSCELYHYQECVR
Rabbit serum linear peptides [1]: 0.5
Rabbit serum looped peptides [1]: 0.5
Binding of Control Serum Blood-Bank to Looped peptides [2]: 0.7
Binding of Control serum Blood-bank to linear peptides [2]: 0.7
Binding of Control serum LUMC to linear peptides [2]: 0.5
Binding of Control serum LUMC to looped peptides [2]: 0.9
Binding of serum 1a to linear peptides of protein X4 of SARS-CoV Urbani [3]: 0.8
Binding of serum 1a to looped/cyclic peptides of protein X4 of SARS-CoV Urbani [3]: 0.8
Binding of serum 1b to linear peptides of protein X4 of SARS-CoV Urbani [3]: 0.6
Binding of serum 1b to looped/cyclic peptides of protein X4 of SARS-CoV Urbani [3]: 0.7
Binding of serum 2 to linear peptides of protein X4 of SARS-CoV Urbani [3]: 0.4
Binding of serum 2 to looped/cyclic peptides of protein X4 of SARS-CoV Urbani [3]: 0.7
Binding of serum 6 to linear peptides of protein X4 of SARS-CoV Urbani [3]: 0.7
Binding of serum 6 to looped/cyclic peptides of protein X4 of SARS-CoV Urbani [3]: 0.7
Binding of serum 37 to linear peptides of protein X4 of SARS-CoV Urbani [3]: 0.8
Binding of serum 37 to looped/cyclic peptides of protein X4 of SARS-CoV Urbani [3]: 0.8
Binding of serum 62 to linear peptides of protein X4 of SARS-CoV Urbani [3]: 0.8
Binding of serum 62 to looped/cyclic peptides of protein X4 of SARS-CoV Urbani [3]: 0.7
Binding of serum London to linear peptides of protein X4 of SARS-CoV Urbani [3]: 0.7
Binding of serum London to looped/cyclic peptides of protein X4 of SARS-CoV Urbani [3]: 0.3
Binding of serum SARS-green to linear peptides of protein X4 of SARS-CoV Urbani [3]: 0.7
Binding of serum SARS-green to looped/cyclic peptides of protein X4 of SARS-CoV Urbani [3]: 0.7
Binding of serum SARS-yellow to linear peptides of protein X4 of SARS-CoV Urbani [3]: 0.3
Binding of serum SARS-yellow to looped/cyclic peptides of protein X4 of SARS-CoV Urbani [3]: 0.5

VQIHTIDGSSGVANP
Binding of a rabbit serum to linear peptides [1]: 0.1
Binding of a rabbit serum to looped peptides [1]: 0.4
Binding of Control Serum Blood-Bank to Looped peptides [2]: 0.3
Binding of Control serum Blood-bank to linear peptides [2]: 0.5
Binding of Control serum LUMC to linear peptides [2]: 0.5
Binding of Control serum LUMC to looped peptides [2]: 0.4
Binding of serum 1a to linear peptides of protein X1 of SARS-CoV Urbani [3]: 0.7
Binding of serum 1a to looped/cyclic peptides of protein X1 of SARS-CoV Urbani [3]: 0.4
Binding of serum 1b to linear peptides of protein X1 of SARS-CoV Urbani [3]: 0.5
Binding of serum 1b to looped/cyclic peptides of protein X1 of SARS-CoV Urbani [3]: 0.4
Binding of serum 2 to linear peptides of protein X1 of SARS-CoV Urbani [3]: 0.6
Binding of serum 2 to looped/cyclic peptides of protein X1 of SARS-CoV Urbani [3]: 0.3
Binding of serum 6 to linear peptides of protein X1 of SARS-CoV Urbani [3]: 0.6
Binding of serum 6 to looped/cyclic peptides of protein X1 of SARS-CoV Urbani [3]: 0.3
Binding of serum 37 to linear peptides of protein X1 of SARS-CoV Urbani [3]: 0.7
Binding of serum 37 to looped/cyclic peptides of protein X1 of SARS-CoV Urbani [3]: 0.4
Binding of serum 62 to linear peptides of protein X1 of SARS-CoV Urbani [3]: 0.6
Binding of serum 62 to looped/cyclic peptides of protein X1 of SARS-CoV Urbani [3]: 0.5
Binding of serum London to linear peptides of protein X1 of SARS-CoV Urbani [3]: 0.3
Binding of serum London to looped/cyclic peptides of protein X1 of SARS-CoV Urbani [3]: 0.2
Binding of serum SARS-green to linear peptides of protein X1 of SARS-CoV Urbani [3]: 0.2
Binding of serum SARS-green to looped/cyclic peptides of protein X1 of SARS-CoV Urbani [3]: 0.3
Binding of serum SARS-yellow to linear peptides of protein X1 of SARS-CoV Urbani [3]: 0.4
Binding of serum SARS-yellow to looped/cyclic peptides of protein X1 of SARS-CoV Urbani [3]: 0.1
